Experiment [1] addresses T1, full-length beta-Catenin (Uniprot ID P35222) (Homo sapiens, UniProt P35222).
T1 construct: 10 nM full-length beta-Catenin (Uniprot ID P35222)
T1 sequence (P35222 1-781): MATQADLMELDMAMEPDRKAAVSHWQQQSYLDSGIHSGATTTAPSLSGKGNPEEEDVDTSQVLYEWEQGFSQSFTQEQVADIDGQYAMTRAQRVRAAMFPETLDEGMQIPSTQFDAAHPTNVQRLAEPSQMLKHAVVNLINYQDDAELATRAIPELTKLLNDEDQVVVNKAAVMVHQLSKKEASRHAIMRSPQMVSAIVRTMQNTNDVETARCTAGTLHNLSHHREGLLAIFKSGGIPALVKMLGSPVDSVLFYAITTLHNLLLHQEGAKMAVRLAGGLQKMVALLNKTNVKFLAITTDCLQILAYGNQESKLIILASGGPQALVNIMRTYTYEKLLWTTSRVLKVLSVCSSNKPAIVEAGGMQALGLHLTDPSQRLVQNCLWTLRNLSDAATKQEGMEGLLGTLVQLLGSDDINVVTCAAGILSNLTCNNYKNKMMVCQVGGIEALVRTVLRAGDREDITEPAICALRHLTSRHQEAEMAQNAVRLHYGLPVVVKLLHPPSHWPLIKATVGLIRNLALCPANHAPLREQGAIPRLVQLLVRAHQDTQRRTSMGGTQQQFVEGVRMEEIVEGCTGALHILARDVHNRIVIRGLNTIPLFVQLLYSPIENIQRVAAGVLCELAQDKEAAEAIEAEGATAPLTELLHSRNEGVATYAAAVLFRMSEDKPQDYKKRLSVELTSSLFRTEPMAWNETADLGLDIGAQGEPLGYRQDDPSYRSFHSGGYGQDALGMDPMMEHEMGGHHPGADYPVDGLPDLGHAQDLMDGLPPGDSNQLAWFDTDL
The experiment in a line: Fluorescence polarization IC50 (beta-catenin / 5FAM-TCF4 10-53 competition). The format is binding. The settings on record: fluorescence polarization; read-out: beta-Catenin FP IC50.

Experiment [2] addresses T2, beta-catenin/TCF4 engagement (Homo sapiens, UniProt P35222).
T2 construct: expressed in transfected cells; host or cells: HEK293
T2 sequence (P35222 1-781): T1 sequence (P35222 1-781)
The experiment in a line: Nano-BRET target engagement assay (B-cat-Halo & TCF4-Luc in HEK293 cells). The format is cell-based. The following applies: read-out: NanoBRET Abs IC50. (In general: In BRET a luciferase serves as donor, and the signal depends on an acceptor being close.)

A value given as a limit tells only on which side of the number the result lay.

For orientation: IC50 means the concentration that inhibits the measured activity by half.

Take `CC(=O)N1CCC[C@]12CC=CCCCC1(CCCC=CCCCOC(=O)N3CC[C@@](C(=O)N[C@@H](Cc4ccccc4)C(=O)N[C@@H](Cc4csc5ccccc45)C(=O)N[C@@H](CC(N)=O)C(N)=O)(C3)NC(=O)[C@H](CC(N)=O)NC(=O)[C@H](Cc3ccccc3)NC(=O)[C@H](C)NC(=O)[C@H](CCCCNC(C)C)NC(=O)[C@H](CCC(N)=O)NC(=O)[C@H](CC(=O)O)NC1=O)NC(=O)[C@H](CC1CCCCC1)NC(=O)[C@H](CC(N)=O)NC2=O` (stereo partly drawn) [I-2111, Ac-PL3-Asn-Cha-B5-Asp-Gln-iPrLys-Ala-Phe-Asn-PyrS2-Phe-BztA-Asn-NH2]: the IC50 is 180 nM in experiment [1] and over 20000 nM in experiment [2].
The like results for `CC(=O)N1CCC[C@]12CC=CCCCC1(CCCC=CCCCOC(=O)N3CC[C@@](C(=O)N[C@@H](Cc4ccsc4)C(=O)N[C@@H](Cc4csc5ccccc45)C(=O)N[C@@H](CCC(N)=O)C(N)=O)(C3)NC(=O)[C@H](CC(N)=O)NC(=O)[C@H](Cc3cccc(C(=O)O)c3)NC(=O)[C@H](C)NC(=O)[C@H](C)NC(=O)[C@H](CCc3ccc(O)cc3)NC(=O)[C@H](CC(=O)O)NC1=O)NC(=O)[C@H](CC(C)(C)C)NC(=O)[C@H](CC(=O)O)NC2=O` (stereo partly drawn) [I-2114, Ac-PL3-Asp-Npg-B5-Asp-hTyr-Ala-Ala-3COOHF-Asn-PyrS2-3Thi-BztA-Gln-NH2] were, in that order, 32 nM and over 20000 nM.
The like results for `CC(=O)N1CCC[C@]12CC=CCCCC1(CCCC=CCCCOC(=O)N3CC[C@@](C(=O)N[C@@H](Cc4ccsc4)C(=O)N[C@@H](Cc4csc5ccccc45)C(=O)N[C@@H](CCC(N)=O)C(N)=O)(C3)NC(=O)[C@H](CC(N)=O)NC(=O)[C@H](Cc3cccc(C(=O)O)c3)NC(=O)[C@H](C)NC(=O)[C@H](C)NC(=O)[C@H](CCc3ccc(O)cc3)NC(=O)[C@H](CC(=O)O)NC1=O)NC(=O)[C@H](CC(C)(C)C)NC(=O)[C@H](CC(=O)O)NC2=O` (stereo partly drawn) [I-2115, Ac-PL3-Asp-Npg-B5-Asp-hTyr-Ala-Ala-3COOHF-Asn-PyrS2-3Thi-BztA-Gln-NH2] were, in that order, 29 nM and over 20000 nM.
The like results for `CC(=O)N1CCC[C@]12CC=CCCCC1(CCCC=CCCCOC(=O)N3CC[C@@](C(=O)N[C@@H](Cc4ccsc4)C(=O)N[C@@H](Cc4csc5ccccc45)C(=O)N[C@@H](CCC(N)=O)C(N)=O)(C3)NC(=O)[C@H](CCO)NC(=O)[C@H](Cc3cccc(C(=O)O)c3)NC(=O)[C@H](C)NC(=O)[C@H](C)NC(=O)[C@H](CCc3ccc(O)cc3)NC(=O)[C@H](CC(=O)O)NC1=O)NC(=O)[C@H](CC(C)(C)C)NC(=O)[C@H](CC(=O)O)NC2=O` (stereo partly drawn) [I-2116, Ac-PL3-Asp-Npg-B5-Asp-hTyr-Ala-Ala-3COOHF-Hse-PyrS2-3Thi-BztA-Gln-NH2] were, in that order, 19 nM and 33400 nM.
As to `CC(=O)N1CCC[C@]12CC=CCCCC1(CCCC=CCCCOC(=O)N3CC[C@@](C(=O)N[C@@H](Cc4ccsc4)C(=O)N[C@@H](Cc4csc5ccccc45)C(=O)N[C@@H](CCC(N)=O)C(N)=O)(C3)NC(=O)[C@H](CCO)NC(=O)[C@H](Cc3cccc(C(=O)O)c3)NC(=O)[C@H](C)NC(=O)[C@H](C)NC(=O)[C@H](CCc3ccc(O)cc3)NC(=O)[C@H](CC(=O)O)NC1=O)NC(=O)[C@H](CC(C)(C)C)NC(=O)[C@H](CC(=O)O)NC2=O` (stereo partly drawn) [I-2117, Ac-PL3-Asp-Npg-B5-Asp-hTyr-Ala-Ala-3COOHF-Hse-PyrS2-3Thi-BztA-Gln-NH2], the half-inhibitory concentration (IC50) in experiment [1] is 19 nM; in experiment [2], over 20000 nM.
For the molecule `CC(=O)N1CCC[C@]12CC=CCCCC1(CCCC=CCCCOC(=O)N3CC[C@@](C(=O)N[C@@H](Cc4ccsc4)C(=O)N[C@@H](Cc4csc5ccccc45)C(=O)N[C@@H](CCC(N)=O)C(N)=O)(C3)NC(=O)[C@H](CC(N)=O)NC(=O)[C@H](Cc3cccc(C(=O)O)c3)NC(=O)[C@H](C)NC(=O)[C@H](C)NC(=O)[C@H](Cc3c[nH]cn3)NC(=O)[C@H](CC(=O)O)NC1=O)NC(=O)[C@H](CC(C)(C)C)NC(=O)[C@H](CC(=O)O)NC2=O` (stereo partly drawn) [I-2118, Ac-PL3-Asp-Npg-B5-Asp-His-Ala-Ala-3COOHF-Asn-PyrS2-3Thi-BztA-Gln-NH2], the IC50 in experiment [1] was 21 nM; in experiment [2], over 20000 nM.

The values are drawn from patent US20240116985A1, “STAPLED PEPTIDES AND METHODS THEREOF” (priority 2020, published 2024).
